Patent US20030113330A1, “Methods for treating pulmonary fibrosis” (priority 1999, published 2003)
Blank lines part the entries; values can stand above or below the compound they belong to. Where no end group is shown, it is not given here. The star is where a group is joined. CH2Cl = ClC*; CH2F = FC*

What was measured:
A549 cells [1] = assay: Amiodarone-induced net cell loss in A549 cultures; assay type: cell-based, human; details: 20 hours exposure
Procedure: (§6) Primary alveolar epithelial cells were isolated from adult male Wistar rats. The primary cells were studied at day two of culture, a time at which they are type II cell-like by accepted morphologic and biochemical criteria. All primary cell preparations were of better than 90% purity assessed by acridine orange staining. All cells were seeded in 24-well or 6-well chambers, and all experiments were conducted at subconfluent densities of 80-90% in serum-free Ham's F12 medium. Test reagents were diluted with Ham's F12 medium and were applied for 20 hours at 37C. in a 5% CO2 incubator.
(§7) Importantly, unattached cells were recovered and included in the analyses, and thus the data represent true loss of cells rather than simple detachment from the substratum.

[2] = system: primary cultures of rat AEC; assay type: cell-based; details: male, Wistar, rat, 20 h
Procedure: (§8) The human lung adenocarcinoma cell line A549 (ATCC) was cultured in Ham's F12 medium supplemented with 10% fetal bovine serum (FBS). Primary alveolar epithelial cells were isolated from adult male Wistar rats. The primary cells were studied at day two of culture, a time at which they are type II cell-like by accepted morphologic and biochemical criteria. All primary cell preparations were of better than 90% purity assessed by acridine orange staining. All cells were seeded in 24-well or 6-well chambers, and all experiments were conducted at subconfluent densities of 80-90% in serum-free Ham's F12 medium. Test reagents were diluted with Ham's F12 medium and were applied for 20 hours at 37C. in a 5% CO2 incubator.

primary rat AEC [3] = assay: Amiodarone-induced net cell loss in primary rat AEC cultures; assay type: cell-based; details: 20 hours exposure
Procedure: as §6, §7

A549 cells [4] = details: human, 20 h
Procedure: (§1) The human lung adenocarcinoma cell line A549 (ATCC) was cultured in Ham's F12 medium supplemented with 10% fetal bovine serum (FBS). Primary alveolar epithelial cells were isolated from adult male Wistar rats. The primary cells were studied at day two of culture, a time at which they are type II cell-like by accepted morphologic and biochemical criteria. […] All cells were seeded in 24-well or 6-well chambers, and all experiments were conducted at subconfluent densities of 80-90% in serum-free Ham's F12 medium. Test reagents were diluted with Ham's F12 medium and were applied for 20 hours at 37C. in a 5% CO2 incubator.
(§2) Apoptotic cells were detected using propidium iodide (PI) following digestion of ethanol-fixed cells with DNAse-free RNAse in PBS containing 5 ug/ml PI. […] In replicate culture vessels, necrosis was detected as the loss of exclusion of PI after application of the vital dye directly to the cell culture medium at 5 ug/ml final concentration. Red fluorescent (PI-POSITIVE) cells (>570 nm) were scored over the subsequent hour as a percentage of the total cells in any given field. A minimum of 4 separate fields were scored in each of three separate culture vessels per experiment condition; all experiments were performed at least twice and the data were compiled. Although all necrotic cells are PI-positive, some apoptotic cells may also take up the dye but these comprise a minor fraction of the total dead cell population.
(§3) In all assays, detached cells were retained by centrifugation of the culture vessel at 300×g for 10 minutes with a centrifuge rotor designed for culture plates. For detection of necrosis (dye exclusion of PI), the PI was added directly to the cell culture medium immediately before centrifugation of the culture vessel. For detection of apoptosis, ethanol was added directly to the cell culture medium to a final concentration of 70% immediately before the centrifugation. Afterward, the ethanol was carefully removed and the total cell population (attached plus sedimented detached cells) were stained with PI as described above.

primary rat AEC [5] = details: for inhibition of amiodarone-induced apoptosis: captopril 500 ng/ml, saralasin 50 ug/ml, Losartan 5 pg/ml, amiodarone 2.5 ug/ml for chelerythrine, orthovanadate
Procedure: as §1, §2, §3

human A549 cells = assay type: cell-based; details: human, 20 h
Procedure: as §8
Apoptotic cells were detected using propidium iodide (PI) following digestion of ethanol-fixed cells with DNAse-free RNAse in PBS containing 5 ug/ml PI. […] In replicate culture vessels, necrosis was detected as the loss of exclusion of PI after application of the vital dye directly to the cell culture medium at 5 ug/ml final concentration. Red fluorescent (PI-POSITIVE) cells (>570 nm) were scored over the subsequent hour as a percentage of the total cells in any given field. A minimum of 4 separate fields were scored in each of three separate culture vessels per experiment condition; all experiments were performed at least twice and the data were compiled. […]

[6] = system: primary alveolar epithelial cells (AEC); assay: Bleomycin-induced apoptosis of primary AEC in vitro
Procedure: (§4) Lung Cell Isolation and Detection of Apoptosis In Vitro. Primary alveolar epithelial cells (AEC) were isolated from adult male Wistar rats as described above. The primary cells were studied at day two of culture, a time at which they are type II cell-like by accepted morphologic and biochemical criteria, see Paine et al., Am. J. Physiol. […] All cells were seeded in 24-well or 6-well chambers, and all experiments were conducted at subconfluent densities of 80-90% in serum-free Ham's F12 medium. Test reagents were diluted with Ham's F12 medium and were applied for 20 hours at 37° C. in a 5% CO2 incubator.
(§5) Detection of apoptotic cells with propidium iodide (PI) was conducted as described above, following digestion of ethanol-fixed cells with DNAse-free RNAse in PBS containing 5 ug/ml PI.
Apoptosis was detected as described above.

primary rat AEC [7] = assay: Angiotensin II-induced apoptosis in primary rat AEC (nuclear fragmentation, PI); assay type: cell-based; details: ANGII 5.0 uM; saralasin 50 ug/ml, lisinopril 500 ng/ml
Excerpt: Cell Culture. The human lung adenocarcinoma cell line A549 was obtained from American Type Culture Collection and cultured in Ham's F12 medium supplemented with 10% fetal bovine serum (FBS). Primary alveolar epithelial cells were isolated from adult male Wistar rats as described in Uhal et al., Am. J. Physiol. Suppl. (Oct.) 261:110-117 (1991) and Uhal et al., Am. J. Physiol. 269:L819-L828 (1995). The primary cells were studied at day two of culture, a time at which they are type II cell-like by accepted morphologic and biochemical criteria, see Uhal, Am. J. Physiol. 272:L1031-L1045 (1997). […] J. Physiol. Suppl. (October) 261:110-117 (1991). All cells were seeded in 24-well or 6-well chambers, and all experiments were conducted at subconfluent densities of 80-90% in serum-free Ham's F12 medium. Test reagents were diluted with Ham's F12 medium and were applied for 20 h at 37° C. in a 5% CO2 incubator.
Detection of Apoptosis. Detection of apoptotic cells with propidium iodide (PI) was conducted as described in Uhal, et al., Am. J. Physiol. 275:L1013-1017 (1998) following digestion of ethanol-fixed cells with DNAse-free RNAse in PBS containing 5 ug/ml PI. Assay of Annexin V binding by flow cytometry was performed essentially as described for human lung fibroblasts in Uhal, et al., Am. J. Physiol. 275:L998-L1005 (1998) after trypsinization of cells from culture vessels. Assay of Caspase-3 activity was performed on viable suspension cultures as reported in Uhal, et al., Am. J. Physiol. 275:L1013-1017 (1998). In all assays, detached cells were retained by centrifugation of the culture vessels during fixation with 70% ethanol, or by retention of culture media and recovery by centrifugation before assay.
For microscopy, cells were cultured on glass cover slips, incubated with test reagents and fixed with 70% ethanol. The fixed cells were immunolabeled overnight at 4° C. with monoclonal antibodies to cytokeratins 7 and 19 (Chemicon International, Temecula, Calif.), and then for one hour at 37° C. with anti-mouse IgG-rhodamine and DNAse-free RNAse (Boehringer Mannheim, Indianapolis, Ind.) The cover slips were then rinsed in distilled water three times and mounted under Fluoromount Solution (Southern Biotechnology Associates, Birmingham, Ala.) containing 5 ug/ml propidium iodide. Photomicroscopy was performed as described in Uhal, et al., Am. J. Physiol. 275:L1013-1017 (1998).
Apoptosis in alveolar epithelial cells was quantitated by fluorescence detection of chromatin condensation and nuclear fragmentation in alcohol-fixed cells stained with propidium iodide. See Uhal, et al., Am. J. Physiol. 275:L1013-1017 (1998). […] After 20 h, the culture vessel was centrifuged to retain detached cells and labeled with anticytokeratin antibodies and propidium iodide. […] Double labeling with PI and monoclonal antibodies to cytokeratins 7 and 19 identified cells with both apoptotic nuclear morphology and positive anticytokeratin immunoreactivity.

primary rat AEC [8] = assay: Fas ligand-induced apoptosis of primary rat alveolar epithelial cells; assay type: cell-based; details: captopril, lisinopril 500 ng/ml; caspase inhibitors 60 uM
Procedure: as §4, §5
Expression of FAS by alveolar epithelial cells is observed during bleomycin-induced fibrogenesis in mice. See Hagimoto, et al., Am. J. Respir. Cell Mol. Biol. 16:91-101 (1997). […] Apoptosis was detected by quantitation of fragmented nuclei (see above).
Cell Culture and Detection of Apoptosis. The human lung adenocarcinoma cell line A549 was obtained from American Type Culture Collection and cultured in Ham's F12 medium supplemented with 10% fetal bovine serum (FBS). Primary alveolar epithelial cells were isolated from adult male Wistar rats as described earlier (Uhal, B. D., I. Joshi, A. True, S. Mundle, A. Raza, A. Pardo and M. Selman. Fibroblasts isolated after fibrotic lung injury induce apoptosis of alveolar epithelial cells in vitro. Am. J. Physiol. 269:L819-L828, 1995); Wang, R., A. Zagariya, 0. Ibarra-Sunga, C. […] Am. J. Physiol. 276:L885-L889 (1999)). […] All cells were seeded in 24-well or 6-well chambers, and all experiments were conducted at subconfluent densities of 80-90% in serum-free Ham's F12 medium. Test reagents were diluted with serum-free Ham's F12 medium and were applied under serum-free conditions for 20 hours at 37C. in a 5% CO2 incubator. Detection of apoptotic cells with propidium iodide (PI) was conducted as described above Am. J. Physiol. 275:L1013-1017 (1998); Uhal et al., following digestion of ethanol-fixed cells with DNAse-free RNAse in PBS containing 5 μg/ml PI. In all assays, detached cells were retained by centrifugation of the culture vessels during fixation with 70% ethanol, or by retention of culture media and recovery by centrifugation before assay.
Apoptosis was detected by nuclear fragmentation as described above.

[9] = system: primary rat alveolar epithelial cells; assay: Apoptosis of rat AEC induced by human lung fibroblast-conditioned media; assay type: cell-based; details: saralasin 50 ug/ml, DEVD-fmk 60 uM, anti-ANGII IgG 1 ug/ml
adult male Wistar rats = details: 8 U/kg intratracheal, 14 days
Procedure: Adult male Wistar rats were given intratracheal instillations of 8 U/kg bleomycin sulfate (BLEO) or sterile saline. […] Lung fibrosis was assessed by picrosirius red (PR) quantitation of lung collagen and by hydroxyproline (HP) assay at 14 days after BLEO administration. At the same time point, fragmented DNA in lung epithelial cells was detected by in situ end labeling (ISEL).
Animals and Induction of Pulmonary Fibrosis. Forty adult male Wistar rats, 175-200 grams, were divided into four groups; three groups received a single intratracheal instillation of 8 units per kilogram of bleomycin sulfate (BLEO) in sterile saline. Two days before the administration of BLEO, one group received captopril in the drinking water at a concentration of 500 mg/liter. […] Control animals (NORM) received administrations of the vehicles only.
Immediately before sacrifice, animals were given intraperitoneal injections of sodium pentobarbital and the trachea was cannulated. The middle right lobe was ligated at the hilus, was excised distal to the ligation and was immediately frozen in liquid N2 for hydroxyproline assay of total collagen (see below). The remaining lung tissues were carefully removed and were instilled with 4% paraformaldehyde in PBS at 20 cm H2O constant pressure, then immersed in the same fixative for two hours. The fixed tissues were washed with PBS three times for 15 minutes and were then embedded in paraffin. Five-micron sections of lung were deparaffinized by passing through xylene, xylene:alcohol 1:1, 100% alcohol and 70% alcohol for 10 minutes each. Ethanol was removing by rinsing with distilled water.
In situ end-labeling (ISEL) of fragmented DNA. ISEL was conducted by a modification of the method of Mundle et al., Cell Death and Differentiation, 1: 117-122 (1994). Briefly, ethanol was removed from deparaffinized lung sections by rinsing in distilled water for at least 10 minutes. The slides were then placed in 3% hydrogen peroxide (Sigma Chemical, St. Louis, Mo.) for 30 minutes at 20° C., rinsed with PBS, and incubated with Proteinase K (Sigma Chemical, St. Louis, Mo.) in saline sodium citrate solution (SSC) (0.3 M NaCi and 30 mM sodium citrate in water, pH 7.0) for 15 minutes at 37° C. Samples were rinsed once in water, three times in 0.15 M PBS for 4 minutes each, and then incubated in SSC at 80° C. for 20 minutes. After four rinses in PBS and four rinses in Buffer A (50 mM Tris/HCl, 5 mM MgCl, 10 mM β-mercaptoethanol and 0.005% BSA in water, pH 7.5), the sections were incubated at 18° C. for two hours with ISEL solution (0.001 mM digoxigenin-dUTP, 20 U/ml DNA Polymerase 1 and 0.01 mM each of dATP, dCTP and dGTP in Buffer A). The sections were then rinsed thoroughly five times with Buffer A and three times with PBS. Detection of incorporated dUTP was achieved by incubation for two hours at 37° C. with AP-conjugated anti-digoxigenin (Boerhinger Mannheim, Indianapolis, Ind.) at a 1:400 dilution. Bound AP-antibody complexes were detected with the Fast Blue chromogen system and the sections were mounted with Fluoromount Solution (Southern Biotechnology, Birmingham, Ala.).
Identification of Collagen. Collagens were localized through staining of lung sections by the picrosirius red technique, see Pick et al., Am. J. Pathol. 134:365-371 (1989), which has absolute specificity for collagen. Briefly, sections deparaffinized with xylenes were rehydrated through a descending series of ethanols to distilled water. The hydrated sections were immersed in 0.2% aqueous phosphomolybdic acid for 2 minutes, rinsed in distilled water and then stained for 110 minutes with 0.1% Sirius Red F3BA (Pfal and Bauer, Stamford, Conn.) in saturated aqueous picric acid, pH 2.0. The sections were washed for 2 minutes in 0.01 N HCl, rinsed for 45 seconds in 70% ethanol, dehydrated in three changes of absolute alcohol, cleared in xylene and mounted in a nonaqueous mounting medium.

effect on total cell number (A549 cells [1]): significantly decreased | effect on total cell number (primary rat AEC [3]): significantly decreased
Compound: CCCCc1oc2ccccc2c1C(=O)c1cc(I)c(OCCNCC)c(I)c1 [desethylamiodarone]
concentration at which significant cell death / toxicity begins [2]: 100 ng/mL | cytotoxicity at the higher doses [2]: ~100% | concentration at which apoptosis begins (A549 cells [4]): 5000 ng/mL | concentration at which significant apoptosis begins (primary rat AEC [5]; male, Wistar, rat, 20 h): 2500 ng/mL | concentration at which necrosis / significant cell death begins (human A549 cells): 5000 ng/mL

Compound: O=C(O)C1=CC(=C(c2ccc(O)c(C(=O)O)c2)c2ccc(O)c(C(=O)O)c2)C=CC1=O [aurintricarboxylic acid]
inhibition at 10 µM ([6]; Rattus norvegicus, Epithelial cell, read-out: inhibition of bleomycin-induced apoptosis of AEC in vitro): 59%

Compound: COc1ccc2c(c[n+](C)c3c4cc5c(cc4ccc23)OCO5)c1OC [chelerythrine]
inhibition of amiodarone-induced apoptosis (primary rat AEC [5]): significantly inhibited | inhibition of ANGII-induced apoptosis of primary rat AEC (primary rat AEC [7]): significantly inhibited

Compound: Tyr-Val-Ala-Asp-[O-Me]-CH2Cl (YVAD(OMe)-CH2Cl; not fully specified; printed as Tyr-Val-Ala-Asp-[O-Me]-CH2Cl) [YVAD-cmk]
inhibition of Fas ligand-induced apoptosis of primary rat AEC (words) (primary rat AEC [8]): comparable efficacy to inhibit apoptosis

Compound: Asp-Glu-Val-Asp-[O-Me]-CH2F (DEVD(OMe)-CH2F; not fully specified; printed as Asp-Glu-Val-Asp-[O-Me]-CH2F) [DEVD-fmk]
inhibition of Fas ligand-induced apoptosis of primary rat AEC (words) (primary rat AEC [8]): comparable efficacy to inhibit apoptosis | inhibition of apoptosis induced by HIPF-conditioned media [9]: completely abrogated

Compound: bleomycin sulfate
increase in alveolar septal collagen (picrosirius red) (adult male Wistar rats): 100% | increase in peribronchial collagen (picrosirius red) (adult male Wistar rats): 133% | concentration at which induction of apoptosis was statistically significant ([6]; 20 h): 5 µM

Compound: [Na+].[Na+].[Na+].[O]=[V]([O-])([O-])[O-] [sodium orthovanadate]
inhibition of amiodarone-induced apoptosis (primary rat AEC [5]): not
